Experiments:
[1] = Solubility in aqueous solutions; assay type: physicochemical; conditions: comparative
MMP-2 = MMP-2 (Homo sapiens (Human), UniProt P08253); assay: MMP-2 inhibition in vitro, octapeptide substrate, HPLC; assay type: biochemical; conditions: for inhibition at 100 µM: read-out: MMP-2 Maximum Inhibition @100 μM; for MMP-2 Ratio (IC50 test compound/IC50 standard): standard 1,10-phenanthroline
MMP-13 (Collagenase-3) = MMP-13 (Collagenase-3) (Homo sapiens (Human), UniProt P45452); assay: MMP-13 inhibition in vitro, octapeptide substrate, HPLC; assay type: biochemical; conditions: for inhibition at 100 µM: read-out: MMP-13 Maximum Inhibition @100 μM; for MMP-13 Ratio (IC50 test compound/IC50 standard): standard 1,10-phenanthroline
human monocytes = assay: Cytotoxicity in human monocytes (MTS); assay type: cell-based
Protocol: Briefly, human peripheral blood monocytes (HMs) were isolated from a leukocyte concentrate by density gradient centrifugation (Lymphoprep) and the isolated HMs cultured (2 h, 37° C.) to remove non-adherent cells. […] After incubation, the proinflammatory cytokines, TNFα, […], MCP-1 and IL-6 were measured in the conditioned media by ELISA and cytotoxicity was assessed by measuring the absorbance (490 nm) of formazan produced by reduction of MTS. The HMs alone±0.1-0.5% DMSO produced minimal levels of these pro-inflammatory cytokines. However, addition of 100 ng/ml or 10 μg/ml of LPS both dramatically stimulated cytokine production.

TNF-α = assay: Inhibition of TNF-α production by LPS-stimulated monocytes; assay type: cell-based, human; conditions: Homo sapiens, Monocyte, 18 h, read-out: % Inhibition of TNF-α produced by stimulated Monocytes with LPS @ 18 h
Protocol: Briefly, human peripheral blood monocytes (HMs) were isolated from a leukocyte concentrate by density gradient centrifugation (Lymphoprep) and the isolated HMs cultured (2 h, 37° C.) to remove non-adherent cells. The adherent HMs wore cultured for 18 h (1×10^6 cells/well, 24-well plates)±endotoxin (LPS)±different compounds dissolved in DMSO (the final concentration of DMSO in the RPMI serum-free culture media with Pen./Strep. antibiotics was no greater than 0.5%). After incubation, the proinflammatory cytokines, TNFα, […], MCP-1 and IL-6 were measured in the conditioned media by ELISA and cytotoxicity was assessed by measuring the absorbance (490 nm) of formazan produced by reduction of MTS. The HMs alone±0.1-0.5% DMSO produced minimal levels of these pro-inflammatory cytokines. However, addition of 100 ng/ml or 10 μg/ml of LPS both dramatically stimulated cytokine production.
The cytokine levels were measured by Luminex multiplex, a method that allows the simultaneous measurement of different biological markers.

[2] = molecular target: MMP-9 (human leukocyte gelatinase) (Homo sapiens (Human), UniProt P14780); assay: MMP-9 inhibition in vitro, octapeptide substrate, HPLC; assay type: biochemical; conditions: read-out: Maximum Inhibition At 100 μM compound (MMP-9)
Sequence of MMP-9 (human leukocyte gelatinase) (P14780 94-707): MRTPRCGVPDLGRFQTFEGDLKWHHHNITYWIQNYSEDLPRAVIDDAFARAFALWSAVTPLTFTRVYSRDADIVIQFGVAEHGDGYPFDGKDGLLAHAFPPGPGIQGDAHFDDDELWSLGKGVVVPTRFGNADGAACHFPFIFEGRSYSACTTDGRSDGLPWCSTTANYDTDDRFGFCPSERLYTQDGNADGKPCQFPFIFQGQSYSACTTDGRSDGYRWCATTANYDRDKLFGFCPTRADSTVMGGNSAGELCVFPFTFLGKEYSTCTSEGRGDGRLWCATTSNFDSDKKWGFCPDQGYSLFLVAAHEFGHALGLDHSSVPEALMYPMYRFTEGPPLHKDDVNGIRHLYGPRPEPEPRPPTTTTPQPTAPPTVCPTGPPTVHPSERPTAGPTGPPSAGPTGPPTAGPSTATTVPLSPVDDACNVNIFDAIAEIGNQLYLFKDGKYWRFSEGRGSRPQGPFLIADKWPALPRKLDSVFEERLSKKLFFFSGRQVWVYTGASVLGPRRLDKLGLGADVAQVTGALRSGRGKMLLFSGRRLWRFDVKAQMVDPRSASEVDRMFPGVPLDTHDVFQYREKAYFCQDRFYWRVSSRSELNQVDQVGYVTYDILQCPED
Excerpt: In contrast all three chemically-modified curcumins at 100 μm final concentration inhibited gelatinase activity by 68-100% (FIG. 6 and Table 6).

Sequence of MMP-2 (P08253 110-660, species assumed): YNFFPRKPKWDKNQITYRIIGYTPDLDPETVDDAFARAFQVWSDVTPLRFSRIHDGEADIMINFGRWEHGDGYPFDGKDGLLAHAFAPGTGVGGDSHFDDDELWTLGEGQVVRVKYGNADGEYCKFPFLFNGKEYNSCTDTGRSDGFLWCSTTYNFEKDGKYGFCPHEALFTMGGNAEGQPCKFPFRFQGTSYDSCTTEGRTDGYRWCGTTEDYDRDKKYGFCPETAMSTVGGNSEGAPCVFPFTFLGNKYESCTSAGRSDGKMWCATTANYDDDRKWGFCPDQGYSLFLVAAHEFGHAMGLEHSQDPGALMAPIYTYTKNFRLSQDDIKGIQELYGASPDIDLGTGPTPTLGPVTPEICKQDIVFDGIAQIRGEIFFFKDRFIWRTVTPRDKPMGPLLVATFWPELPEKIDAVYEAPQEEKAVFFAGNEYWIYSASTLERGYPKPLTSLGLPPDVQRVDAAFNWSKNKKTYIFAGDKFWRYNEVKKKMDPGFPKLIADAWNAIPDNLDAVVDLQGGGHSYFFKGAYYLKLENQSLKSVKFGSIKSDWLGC

Compound: COC(=O)C(C(=O)/C=C/c1ccccc1)C(=O)/C=C/c1ccccc1 [Compound 2]
- Solubility [1]: improved solubility

Compound: O=C(/C=C/c1ccc(O)cc1)C(C(=O)/C=C/c1ccc(O)cc1)C(=O)Nc1ccccc1 [Compound 7, 1,7-Bis(4-hydroxyphenyl)-4-N-phenylaminocarbonylhepta-1E,6E-dien-3,5-dione]
- inhibition at 100 µM (MMP-2): 45%
- MMP-2 Ratio (IC50 test compound/IC50 standard) (MMP-2): 1.8
- inhibition at 100 µM (MMP-13 (Collagenase-3)): 77%
- MMP-13 Ratio (IC50 test compound/IC50 standard) (MMP-13 (Collagenase-3)): <0.3

Compound: COc1cc(/C=C/C(=O)CC(=O)/C=C/c2ccc(O)c(OC)c2)ccc1O [Curcumin, curcumin]
- Cytotoxicity Monocytes @ 5 h incubation (human monocytes; 10 uM): 10 uM - 0%
- Cytotoxicity Monocytes @ 18 h incubation (human monocytes; 10 uM): 10 uM - 0%
- Cytotoxicity Monocytes @ 5 h incubation (human monocytes; 20 uM): 20 uM - 20%
- Cytotoxicity Monocytes @ 18 h incubation (human monocytes; 20 uM): 20 uM - 20%
- Cytotoxicity Monocytes @ 5 h incubation (human monocytes; 50 uM): 50 uM - 50%
- Cytotoxicity Monocytes @ 18 h incubation (human monocytes; 50 uM): 50 uM - 77%
- Cytotoxicity in monocyte culture (human monocytes; 50 and 100 μM, with some precipitation): significant cytotoxicity
- inhibition at 10 µM (TNF-α; 10 uM): 0%
- inhibition at 20 µM (TNF-α; 20 uM): 0%
- inhibition at 50 µM (TNF-α; 50 uM): 80%
- Solubility [1]: insoluble
- inhibition at 100 µM [2]: 58%
- inhibition at 100 µM (MMP-2): 54%

Compound: COc1cc(/C=C/C(=O)CC(=O)/C=C/c2ccc(N(C)C)cc2)ccc1O [Compound 4]
- inhibition at 100 µM [2]: 100%
- inhibition at 100 µM (MMP-2): 36%
- MMP-2 Ratio (IC50 test compound/IC50 standard) (MMP-2): >3.6
- inhibition at 100 µM (MMP-13 (Collagenase-3)): 50%
- MMP-13 Ratio (IC50 test compound/IC50 standard) (MMP-13 (Collagenase-3)): 62.5

Compound: COC(=O)C(C(=O)/C=C/c1ccc(O)cc1)C(=O)/C=C/c1ccc(O)cc1 [Compound 3, 1,7-Bis(4-hydroxyphenyl)-4-methoxycarbonylhepta-1E,6E-dien-3,5-dione]
- Solubility [1]: more soluble in aqueous solutions than compound 1
- inhibition at 100 µM [2]: 68%
- inhibition at 100 µM (MMP-2): 60%
- MMP-2 Ratio (IC50 test compound/IC50 standard) (MMP-2): 1.0
- inhibition at 100 µM (MMP-13 (Collagenase-3)): 76%
- MMP-13 Ratio (IC50 test compound/IC50 standard) (MMP-13 (Collagenase-3)): 2.0

Compound: CN(C)c1ccc(/C=C/C(=O)C(C(=O)/C=C/c2ccc(N(C)C)cc2)C(=O)Nc2ccccc2)cc1 [Compound 8, 1,7-Bis(4-dimethylaminophenyl)-4-N-phenylaminocarbonylhepta-1E,6E-dien-3,5-dione]
- inhibition at 100 µM (MMP-13 (Collagenase-3)): 53%
- MMP-13 Ratio (IC50 test compound/IC50 standard) (MMP-13 (Collagenase-3)): 11.3

Compound: c1cnc2c(c1)ccc1cccnc12 [1,10-phenanthroline, 1,10-O-phenanthroline, reference compound]
- inhibition at 100 µM [2]: 100%
- inhibition at 100 µM (MMP-2): 60%
- MMP-2 Ratio (IC50 test compound/IC50 standard) (MMP-2): 1.0
- inhibition at 100 µM (MMP-13 (Collagenase-3)): 100%
- MMP-13 Ratio (IC50 test compound/IC50 standard) (MMP-13 (Collagenase-3)): 1.0

Compound: COc1cc(/C=C/C(=O)C(C(=O)/C=C/c2ccc(O)c(OC)c2)C(=O)Nc2ccccc2)ccc1O [Compound 6, 1,7-Bis(4-hydroxy-3-methoxyphenyl)-4-N-phenylaminocarbonylhepta-1E,6E-dien-3,5-dione]
- inhibition at 100 µM (MMP-2): 53%
- inhibition at 100 µM (MMP-13 (Collagenase-3)): 100%

Source: patent US10669227B2 (THE RESEARCH FOUNDATION OF STATE UNIVERSITY OF NEW YORK, priority 2009, dated 2020)
